From patent US10478436B2, “Application of 5-HT6 receptor antagonists for the alleviation of cognitive deficits of down syndrome” (The University of Utah Research Foundation, priority 2011, dated 2019)
Entries after “also recorded” stand apart in the source; their conditions may differ.

Legend:
Ts65Dn mice = experiment: Exploratory paradigm: ability to recognize a novel object in a novel location (discrimination ratio), Ts65Dn Down syndrome mice; type: in vivo, mouse; settings: for cognition (discrimination ratio) compared to treatment with vehicle alone: Ts65Dn mice; for cognition (discrimination ratio) compared to treatment with vehicle alone / cognitive performance (discrimination ratio) compared to no treatment / vehicle alone: 10 mg/kg i.p.; for cognitive performance (discrimination ratio) compared to no treatment / vehicle alone: 9-month-old Ts65Dn mice
Protocol: […] Animals were kept on a 12 hour light/dark cycle and experimentation was conducted during the light portion of the cycle. Animals had unlimited access to food and water. All animals used were housed individually to limit the interference of social interaction on cognitive test performance. Animal care and experimental testing procedures conformed to NIH, IACUC, and AALAC standards and protocols.
(§1) Ts65Dn are compared to their control littermates for the effects of excipients and compounds in altering the performance and rescue of deficits in the Ts65Dn DS mouse model.
The apparatus for these experiments consisted of a 40 cm×40 cm Plexiglas box with clear walls and a dark grey floor. The box was placed on a circular white table 1 m in diameter. Four distinct, approximately 20 cm×20 cm black and white shapes were placed 30 cm away from the midpoint of each side of the box. Objects were made from various washable, non-porous materials (plastic, metal, glass, etc.), 2-7 cm in height and varied in color, pattern and texture. To prevent odor cues, all apparatus and objects were disinfected and deodorized with HDQ after each use.
The experimental paradigms utilized the inherent tendency of rodents to differentially explore novel stimuli over familiar stimuli. Exploration was defined as any investigative behavior where mice have active and direct contact with an object. Such behaviors included head orientation and sniffing within <1.0 cm of the object, pawing, biting, or crawling over the objects. Exploration was recorded with an overhead video camera and the duration of exploration was measured with a stopwatch. The week prior to testing, all animals were handled in daily sessions and given an opportunity to habituate to the clear or red apparatus. Each experimental session presented the animal with new object sets and tests were separated by a minimum 48 hour interval. It should be noted that order effects are not normally observed in exploration tasks. Each test consisted of a Habituation Phase, during which mice display reduced exploration over time as a function of habituation, and a Test Phase on novelty detection that is interpreted to reflect recognition memory.
For each of the 7 compounds 1-7, the compound was administered to Ts65Dn mice via i.p. injection at a concentration of 3.0 mg/kg (compound 1) or 10 mg/kg (compounds 2, 3, 4, 5, 6, and 7) body weight delivered in a vehicle of methyl cellulose+0.2% tween 80 solution, while additional Ts65Dn mice were administered with vehicle alone. Each animal received a volume (ml) of drug in vehicle equal to 1% of its body weight (g) or an equal volume of vehicle alone. Forty minutes after the compound is injected, the Habituation phase begins. Therefore, the Test phase occurs 60 minutes after administration of the drug.
For each experiment the animal was placed in center of the clear acrylic box and presented with two different objects spaced 15 cm apart for 15 minutes of free explorations of the apparatus, stimulus objects, and distal environmental cues (Habituation Phase). After the Habituation Phase, a black container was placed over the mouse for a 5-minute Delay. During this delay, one object was exchanged with a new, unfamiliar object in a novel location (novel object), while the other object is replaced with an identical object in the same location (familiar object). Following the delay the black container was removed, beginning the Test Phase and the mouse is allowed to re-explore for 5 minutes (Test Phase).
The duration of exploration of the Novel and Familiar stimuli during the Test Phase was individually measured with stopwatches, rounding to the 0.5 second. […] A zero score would reflect no preference for either the novel or familiar object. A positive score reflects a preference for exploration of the novel object, and is associated with the animal's level of hippocampal function and memory or cognition. […]

[1] = system: scopolamine-induced memory deficits; settings: Mitchell and Neumaier (2008); cited from earlier work
5-HT6 receptor [2] = target: T1, 5-HT6 receptor (Homo sapiens, UniProt P50406); settings: Arnt et al. (2010); cited from earlier work
T1 sequence (P50406 whole entry): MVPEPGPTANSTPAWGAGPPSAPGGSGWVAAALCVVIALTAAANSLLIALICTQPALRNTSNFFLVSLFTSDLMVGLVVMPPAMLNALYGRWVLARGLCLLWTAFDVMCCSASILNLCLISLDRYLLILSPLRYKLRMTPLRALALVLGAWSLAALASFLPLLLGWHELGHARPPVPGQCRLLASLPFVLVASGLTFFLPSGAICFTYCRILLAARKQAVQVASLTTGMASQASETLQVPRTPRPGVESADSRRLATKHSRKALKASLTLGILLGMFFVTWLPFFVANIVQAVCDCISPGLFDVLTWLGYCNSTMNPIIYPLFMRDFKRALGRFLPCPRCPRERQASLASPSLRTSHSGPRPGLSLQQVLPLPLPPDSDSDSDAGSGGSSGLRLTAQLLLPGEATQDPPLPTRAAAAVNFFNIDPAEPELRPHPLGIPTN

mouse 5-HT6 receptor = mouse 5-HT6 receptor (Mus musculus, UniProt Q9R1C8); settings: cited from earlier work
Chain of mouse 5-HT6 receptor (Q9R1C8 whole entry): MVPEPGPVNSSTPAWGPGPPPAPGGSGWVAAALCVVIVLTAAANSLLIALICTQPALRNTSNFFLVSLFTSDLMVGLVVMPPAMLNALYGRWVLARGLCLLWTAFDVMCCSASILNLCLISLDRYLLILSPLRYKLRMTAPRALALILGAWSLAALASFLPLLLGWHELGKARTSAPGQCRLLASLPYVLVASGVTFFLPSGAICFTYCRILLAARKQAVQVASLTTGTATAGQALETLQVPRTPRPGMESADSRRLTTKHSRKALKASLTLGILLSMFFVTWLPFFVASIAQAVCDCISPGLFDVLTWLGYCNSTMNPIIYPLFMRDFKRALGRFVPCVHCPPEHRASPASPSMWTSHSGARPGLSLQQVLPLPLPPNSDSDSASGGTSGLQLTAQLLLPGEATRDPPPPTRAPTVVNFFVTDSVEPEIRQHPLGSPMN

[3] = target: human recombinant and native 5-HT6 receptors (Homo sapiens, UniProt P50406); settings: cited from earlier work
Chain of human recombinant and native 5-HT6 receptors (P50406 whole entry): as the sequence (P50406 whole entry) above

rat 5-HT6 receptor = rat 5-HT6 receptor (Rattus norvegicus, UniProt P31388); settings: cited from earlier work
Chain of rat 5-HT6 receptor (P31388 whole entry): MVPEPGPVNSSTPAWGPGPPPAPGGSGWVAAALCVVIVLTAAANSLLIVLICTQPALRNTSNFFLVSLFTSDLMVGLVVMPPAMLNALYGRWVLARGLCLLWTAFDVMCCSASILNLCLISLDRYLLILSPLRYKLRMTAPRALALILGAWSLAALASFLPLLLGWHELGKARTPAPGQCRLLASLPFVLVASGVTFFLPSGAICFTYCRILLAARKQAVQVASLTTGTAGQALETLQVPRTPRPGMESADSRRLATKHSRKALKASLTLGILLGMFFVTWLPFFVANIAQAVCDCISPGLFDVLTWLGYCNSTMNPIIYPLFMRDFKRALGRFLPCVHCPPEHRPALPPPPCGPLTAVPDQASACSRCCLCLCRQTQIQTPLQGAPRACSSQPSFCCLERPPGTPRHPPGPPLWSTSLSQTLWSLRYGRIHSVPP

control mice = experiment: Exploratory paradigm: ability to recognize a novel object in a novel location (discrimination ratio), control littermates; type: in vivo, mouse; settings: 3.0 mg/kg i.p.
Protocol: Male Ts65Dn/DnJ mice and male littermates were obtained from a commercial supplier (Jackson Laboratory, Bar Harbor, Me.), and tested at approximately 12-32 weeks of age, at a weight of 25-30 grams. Animals were kept on a 12 hour light/dark cycle and experimentation was conducted during the light portion of the cycle. Animals had unlimited access to food and water. All animals used were housed individually to limit the interference of social interaction on cognitive test performance. Animal care and experimental testing procedures conformed to NIH, IACUC, and AALAC standards and protocols.
as §1
The apparatus for these experiments consisted of a 40 cm×40 cm Plexiglas box with clear walls and a dark grey floor. The box was placed on a circular white table 1 m in diameter. […]
The experimental paradigms utilized the inherent tendency of rodents to differentially explore novel stimuli over familiar stimuli. […] Exploration was recorded with an overhead video camera and the duration of exploration was measured with a stopwatch. […]
The duration of exploration of the Novel and Familiar stimuli during the Test Phase was individually measured with stopwatches, rounding to the 0.5 second. […]

[4] = Hirst et al. (2006); cited from earlier work
18 other receptors = settings: concentration of 10 μM; cited from earlier work
5-HT6 receptor [5] = target: T1, 5-HT6 receptor; settings: cited from earlier work
[6] = Test phase 60 minutes after administration

COc1ccc2[nH]c(-c3ccccc3)c(CCN(C)C)c2c1 [compound 2, 2-(5-methoxy-2-phenyl-1H-indol-3-yl)-N,N-dimethylethanamine]
cognition (discrimination ratio) compared to treatment with vehicle alone (Ts65Dn mice; [6]): significantly improves | effect on scopolamine-induced memory deficits [1]: reverse

CN1CCC(c2cn(C)c3ccc(OS(=O)(=O)c4c(F)cccc4F)cc23)CC1 [compound 4, 1-methyl-3-(1-methylpiperidin-4-yl)-1H-indol-5-yl 2,6-difluorobenzenesulfonate]
cognition (discrimination ratio) compared to treatment with vehicle alone (Ts65Dn mice; [6]): trend to increased discrimination ratios

O=S(=O)(c1ccccc1)c1cnc2c(N3CCNCC3)cccc2c1 [compound 7, 3-(phenylsulfonyl)-8-(piperazin-1-yl)quinoline]
cognitive performance (discrimination ratio) compared to no treatment / vehicle alone (Ts65Dn mice): significantly improves

Fc1ccc2c(CCNCc3cccc(OCC(F)(F)C(F)F)c3)c[nH]c2c1 [compound 6, 2-(6-fluoro-1H-indol-3-yl)-N-(3-(2,2,3,3-tetrafluoropropoxyl)benzyl)ethanamine]
cognitive performance (discrimination ratio) compared to no treatment / vehicle alone (Ts65Dn mice): significant increase | 5-HT6 receptor agonist activity (5-HT6 receptor [2]): no agonist activity

CNc1cc(NS(=O)(=O)c2ccc(N)cc2)nc(NC)n1 [compound 5, 4-amino-N-(2,6-bis(methylamino)pyrimidin-4-yl)benzenesulfonamide]
cognition (discrimination ratio) compared to treatment with vehicle alone (Ts65Dn mice; Test phase 60 minutes after administration, 10 mg/kg): does not restore cognition; also recorded: does not improve cognition; also recorded: lack of response; also recorded: did not alter the cognitive abilities | binding to the mouse 5-HT6 receptor (mouse 5-HT6 receptor): does not bind; also recorded: does not recognize | binding to the human 5-HT6 receptor [3]: binds the human | recognition of the rat 5-HT6 receptor (rat 5-HT6 receptor): recognizes the rat

O=S(=O)(c1cccc2ccccc12)n1ccc2ccc(N3CCN4CCCC4C3)cc21 (stereo not shown) [compound 3, 2-(1-(naphthalen-1-ylsulfonyl)-1H-indol-6-yl)octahydropyrrolo[1,2-a]pyrazine]
cognition (discrimination ratio) compared to treatment with vehicle alone (Ts65Dn mice; [6]): significantly increased

COc1ccc(S(=O)(=O)Nc2cc(Cl)cc(Cl)c2OC)cc1N1CCNCC1 [compound 1, N-(3,5-dichloro-2-methoxyphenyl)-4-methoxy-3-(piperazin-1-yl)benzenesulfonamide]
mean discrimination ratio compared to no treatment or treatment with vehicle alone (Ts65Dn mice; 3 to 4 month-old Ts65Dn mice, 3.0 mg/kg i.p., Test phase 60 minutes after administration): significant increase | discrimination ratio compared to no treatment or treatment with vehicle alone (Ts65Dn mice; 8-month-old Ts65Dn mice, 3.0 mg/kg i.p.): significantly increased | persistence of the treatment effect on mean discrimination ratio (Ts65Dn mice; 8-month-old Ts65Dn mice, tested two weeks after the treatment experiments): did not last | mean discrimination ratio, compound+vehicle vs. vehicle alone (control mice): did not respond differently | brain penetration [4]: brain penetrant | oral activity [4]: orally active

Cc1ccc2c(c1)c1c(n2CCc2ccc(C)nc2)CCN(C)C1 [dimebolin]
inhibition of 18 other receptors (18 other receptors): 50% | ability to bind as 5-HT6 receptor antagonist (5-HT6 receptor [5]): approximately 20 times weaker
